Structures are written as SMILES.

The results in this text go back to patent US20090270443A1, “1-AMINO IMIDAZO-CONTAINING COMPOUNDS AND METHODS” (priority 2004, published 2009).

What is called melting point is the temperature of the solid-liquid transition. In turn, `Cc1nc(N)c2nc(CO)n(NC3CCCC3)c2c1C` [Example 47, (4-Amino-1-cyclopentylamino-6,7-dimethyl-1H-imidazo[4,5-c]pyridin-2-yl)methanol] gave a melting point of 254 to 256 °C.

Turning to `CCc1nc2c(N)nc(C)c(C)c2n1NC1CCOCC1` [Example 48, 2-Ethyl-6,7-dimethyl-N^1-(tetrahydropyran-4-yl)-1H-imidazo[4,5-c]pyridine-1,4-diamine], the melting point is 191 to 193 °C.

On to `CCOCc1nc2c(N)nc(C)c(C)c2n1NCCCNC(=O)OCC` [Example 49], for which the melting point was 148 to 150 °C.

For `Cc1nc(N)c2nc(CCO)n(NC3CCOCC3)c2c1C` [Example 50, 2-[4-Amino-6,7-dimethyl-1-(tetrahydropyran-4-yl)amino-1H-imidazo[4,5-c]pyridin-2-yl]ethanol], the melting point fell in the range of 190 to 192 °C.

As for `COCCc1nc2c(N)nc(C)c(C)c2n1NC1CCOCC1` [Example 51, 2-(2-Methoxyethyl)-6,7-dimethyl-N^1-(tetrahydropyran-4-yl)-1H-imidazo[4,5-c]pyridine-1,4-diamine], the melting point fell in the range of 110 to 120 °C.
